Measurements from a compilation of properties of binary mixtures (doi:10.1007/s10953-023-01258-3).

Test: xn = mol fraction of the nth substance listed
Settings: 101 kPa

Cn1cc[n+](CCCN)c1.F[B-](F)(F)F + CS(C)=O
viscosity (323.15 K, x1 = 0.2997): 11.79 mPa·s | electrical conductivity (323.15 K, x1 = 0.3997): 0.81 S/m | viscosity (323.15 K, x1 = 0.3997): 16.67 mPa·s | electrical conductivity (323.15 K, x1 = 0.5999): 0.446 S/m | viscosity (323.15 K, x1 = 0.5999): 28.21 mPa·s | electrical conductivity (323.15 K, x1 = 0.7001): 0.314 S/m | viscosity (323.15 K, x1 = 0.7001): 35.29 mPa·s | electrical conductivity (323.15 K, x1 = 0.8109): 0.223 S/m | viscosity (323.15 K, x1 = 0.8109): 43.46 mPa·s | electrical conductivity (323.15 K, x1 = 0.8998): 0.17 S/m | viscosity (323.15 K, x1 = 0.8998): 50.38 mPa·s | electrical conductivity (328.15 K, x1 = 0.2997): 1.26 S/m | viscosity (328.15 K, x1 = 0.2997): 10.06 mPa·s | electrical conductivity (328.15 K, x1 = 0.4998): 0.659 S/m | viscosity (328.15 K, x1 = 0.4998): 18.73 mPa·s | electrical conductivity (328.15 K, x1 = 0.5999): 0.515 S/m | viscosity (328.15 K, x1 = 0.5999): 24.2 mPa·s | electrical conductivity (328.15 K, x1 = 0.7001): 0.369 S/m | viscosity (328.15 K, x1 = 0.7001): 30.06 mPa·s | electrical conductivity (328.15 K, x1 = 0.8109): 0.269 S/m | viscosity (328.15 K, x1 = 0.8109): 37.19 mPa·s | electrical conductivity (328.15 K, x1 = 0.8998): 0.21 S/m | viscosity (328.15 K, x1 = 0.8998): 43.13 mPa·s | electrical conductivity (328.15 K, x1 = 1): 0.159 S/m | viscosity (328.15 K, x1 = 1): 50.12 mPa·s | electrical conductivity (333.15 K, x1 = 0.1003): 2.3 S/m | viscosity (333.15 K, x1 = 0.1003): 2.79 mPa·s | electrical conductivity (333.15 K, x1 = 0.2): 1.78 S/m | viscosity (333.15 K, x1 = 0.2): 5.508 mPa·s | electrical conductivity (333.15 K, x1 = 0.3997): 1.04 S/m | viscosity (333.15 K, x1 = 0.3997): 12.05 mPa·s | electrical conductivity (333.15 K, x1 = 0.4998): 0.749 S/m | viscosity (333.15 K, x1 = 0.4998): 16.07 mPa·s | electrical conductivity (333.15 K, x1 = 0.5999): 0.593 S/m | viscosity (333.15 K, x1 = 0.5999): 20.41 mPa·s | electrical conductivity (333.15 K, x1 = 0.7001): 0.431 S/m | viscosity (333.15 K, x1 = 0.7001): 25.32 mPa·s | electrical conductivity (333.15 K, x1 = 0.8109): 0.323 S/m | viscosity (333.15 K, x1 = 0.8109): 31.21 mPa·s | electrical conductivity (333.15 K, x1 = 0.8998): 0.258 S/m | viscosity (333.15 K, x1 = 0.8998): 36.19 mPa·s | electrical conductivity (333.15 K, x1 = 1): 0.203 S/m | viscosity (333.15 K, x1 = 1): 42.31 mPa·s | electrical conductivity (338.15 K, x1 = 0.1003): 2.53 S/m | viscosity (338.15 K, x1 = 0.1003): 2.4 mPa·s | electrical conductivity (338.15 K, x1 = 0.2): 1.97 S/m | viscosity (338.15 K, x1 = 0.2): 4.865 mPa·s | electrical conductivity (338.15 K, x1 = 0.2997): 1.55 S/m | viscosity (338.15 K, x1 = 0.2997): 7.311 mPa·s | electrical conductivity (338.15 K, x1 = 0.4998): 0.849 S/m | viscosity (338.15 K, x1 = 0.4998): 13.77 mPa·s | electrical conductivity (338.15 K, x1 = 0.5999): 0.682 S/m | viscosity (338.15 K, x1 = 0.5999): 17.48 mPa·s | electrical conductivity (338.15 K, x1 = 0.7001): 0.496 S/m | viscosity (338.15 K, x1 = 0.7001): 21.74 mPa·s | electrical conductivity (338.15 K, x1 = 0.8998): 0.312 S/m | viscosity (338.15 K, x1 = 0.8998): 31.24 mPa·s | electrical conductivity (343.15 K, x1 = 0.2): 2.17 S/m | viscosity (343.15 K, x1 = 0.2): 4.241 mPa·s | electrical conductivity (343.15 K, x1 = 0.2997): 1.71 S/m | viscosity (343.15 K, x1 = 0.2997): 6.401 mPa·s | electrical conductivity (343.15 K, x1 = 0.3997): 1.3 S/m | viscosity (343.15 K, x1 = 0.3997): 8.856 mPa·s | electrical conductivity (343.15 K, x1 = 0.4998): 0.948 S/m | viscosity (343.15 K, x1 = 0.4998): 11.78 mPa·s | electrical conductivity (343.15 K, x1 = 0.7001): 0.572 S/m | viscosity (343.15 K, x1 = 0.7001): 19.03 mPa·s | electrical conductivity (343.15 K, x1 = 0.8109): 0.449 S/m | viscosity (343.15 K, x1 = 0.8109): 23.52 mPa·s | electrical conductivity (343.15 K, x1 = 0.8998): 0.374 S/m | viscosity (343.15 K, x1 = 0.8998): 27.44 mPa·s | electrical conductivity (343.15 K, x1 = 1): 0.308 S/m | viscosity (343.15 K, x1 = 1): 32.15 mPa·s | electrical conductivity (348.15 K, x1 = 0.1003): 3.02 S/m | viscosity (348.15 K, x1 = 0.1003): 2.048 mPa·s | electrical conductivity (348.15 K, x1 = 0.2): 2.37 S/m | viscosity (348.15 K, x1 = 0.2): 3.722 mPa·s | electrical conductivity (348.15 K, x1 = 0.2997): 1.88 S/m | viscosity (348.15 K, x1 = 0.2997): 5.565 mPa·s | electrical conductivity (348.15 K, x1 = 0.3997): 1.46 S/m | viscosity (348.15 K, x1 = 0.3997): 7.954 mPa·s | electrical conductivity (348.15 K, x1 = 0.4998): 1.07 S/m | viscosity (348.15 K, x1 = 0.4998): 10.3 mPa·s | electrical conductivity (348.15 K, x1 = 0.5999): 0.877 S/m | viscosity (348.15 K, x1 = 0.5999): 13.38 mPa·s | electrical conductivity (348.15 K, x1 = 0.7001): 0.656 S/m | viscosity (348.15 K, x1 = 0.7001): 16.16 mPa·s | electrical conductivity (348.15 K, x1 = 0.8109): 0.524 S/m | viscosity (348.15 K, x1 = 0.8109): 20.12 mPa·s | electrical conductivity (348.15 K, x1 = 0.8998): 0.445 S/m | viscosity (348.15 K, x1 = 0.8998): 23.5 mPa·s | electrical conductivity (348.15 K, x1 = 1): 0.374 S/m | viscosity (348.15 K, x1 = 1): 27.51 mPa·s | electrical conductivity (353.15 K, x1 = 0.1003): 3.27 S/m | viscosity (353.15 K, x1 = 0.1003): 1.997 mPa·s | electrical conductivity (353.15 K, x1 = 0.2): 2.58 S/m | viscosity (353.15 K, x1 = 0.2): 3.564 mPa·s | electrical conductivity (353.15 K, x1 = 0.2997): 2.07 S/m | viscosity (353.15 K, x1 = 0.2997): 5.199 mPa·s | electrical conductivity (353.15 K, x1 = 0.4998): 1.19 S/m | viscosity (353.15 K, x1 = 0.4998): 9.541 mPa·s | electrical conductivity (353.15 K, x1 = 0.5999): 0.978 S/m | viscosity (353.15 K, x1 = 0.5999): 12.09 mPa·s | electrical conductivity (353.15 K, x1 = 0.7001): 0.749 S/m | viscosity (353.15 K, x1 = 0.7001): 14.98 mPa·s | electrical conductivity (353.15 K, x1 = 0.8109): 0.608 S/m | viscosity (353.15 K, x1 = 0.8109): 18.65 mPa·s | electrical conductivity (353.15 K, x1 = 0.8998): 0.522 S/m | viscosity (353.15 K, x1 = 0.8998): 21.71 mPa·s | electrical conductivity (353.15 K, x1 = 1): 0.457 S/m | viscosity (353.15 K, x1 = 1): 25.41 mPa·s
